From patent EP4578939A1, “MYC[…]. BASED ON VARIOUS CARBON-NITROGEN METABOLIC […], METHOD FOR ISOLATING SAME, AND USE THEREOF” (Peng, Guanghao, priority 2022, dated 2024)

Tests used:
Type in all cases: cell-based
[1] = test system: Mycobacterium sp. with the deposit number CGMCC No.21272; assay: BIOLOG chemically sensitive experiments; details: strain CGMCC No.21272 (YT)
[2] = test system: Mycobacterium sp. with deposit number of CGMCC No.21273; assay: BIOLOG chemically sensitive experiments; details: strain CGMCC No.21273 (JD)
[3] = test system: Mycobacterium sp. with the deposit number CGMCC No.21272; assay: BIOLOG GEN III growth experiments; details: growth on the substance; strain CGMCC No.21272 (YT)
[4] = test system: Mycobacterium sp. with deposit number of CGMCC No.21273; assay: BIOLOG GEN III growth experiments; details: growth on the substance; strain CGMCC No.21273 (JD)
[5] = test system: Mycobacterium sp. with deposit number of CGMCC No.21272; assay: antibiotic susceptibility experiment; details: strain CGMCC No.21272 (YT)
[6] = test system: Mycobacterium sp. with deposit number of CGMCC No.21273; assay: antibiotic susceptibility experiment; details: strain CGMCC No.21273 (JD)

Q: What does the source list for `COc1cc(-c2ccc(-n3nc(-c4ccccc4)n[n+]3-c3ccccc3)c(OC)c2)ccc1-n1nc(-c2ccccc2)n[n+]1-c1ccccc1.[Cl-].[Cl-]` [Tetrazolium blue]?
A: BIOLOG GEN II (chemically sensitive experiments) Results [1]: -; BIOLOG GEN II (chemically sensitive experiments) Results [2]: -

Q: With `O=C[C@H](O)[C@@H](O)[C@H](O)[C@H](O)COP(=O)(O)O` [D-glucose-6-phosphoric acid] as the compound, how does the “BIOLOG GEN III (growth experiments) Results” value (“BIOLOG GEN III” below) [3] read?
A: Its value is “-”.

Q: And the “BIOLOG GEN III” value [4]?
A: The value was “-”.

Q: `O=C(CO)[C@@H](O)[C@H](O)[C@H](O)COP(=O)(O)O` [D-fructose-6-phosphoric acid] was tested. Which “BIOLOG GEN III” value [3] did it give?
A: The value was “+”.

Q: And the “BIOLOG GEN III” value [4]?
A: The value was “+”.

Q: For Romifloxacin, which Susceptibility degree [5] is on record?
A: Its Susceptibility degree is “S”.

Q: What about the Susceptibility degree [6] of the same compound?
A: The Susceptibility degree was “S”.

Q: For `[Cl-].[Li+]` [Lithium chloride], which “BIOLOG GEN II (chemically sensitive experiments) Results” value [1] is on record?
A: The value was “+”.

Q: What about the “BIOLOG GEN II (chemically sensitive experiments) Results” value [2] of the same compound?
A: Its value is “+”.

Q: Which results are given for `OC[C@H]1O[C@H](OCC2O[C@@H](O)[C@H](O)[C@@H](O)[C@@H]2O)[C@H](O)[C@@H](O)[C@H]1O` (stereo partly drawn) [D-melibiose]?
A: BIOLOG GEN III (growth experiments) Results [3]: +; BIOLOG GEN III (growth experiments) Results [4]: +

Q: What does the source list for `OC[C@H]1O[C@H](OC[C@H]2O[C@H](O[C@]3(CO)O[C@H](CO)[C@@H](O)[C@@H]3O)[C@H](O)[C@@H](O)[C@@H]2O)[C@H](O)[C@@H](O)[C@H]1O` [D-raffinose]?
A: BIOLOG GEN III (growth experiments) Results [3]: -; BIOLOG GEN III (growth experiments) Results [4]: -

Q: Which results are given for `O=C(O)C[C@@H](O)C(=O)O` [D-malic acid]?
A: BIOLOG GEN III (growth experiments) Results [3]: -; BIOLOG GEN III (growth experiments) Results [4]: -

Q: With `CC(O)CC(=O)O` (racemic) [β-hydroxy-D,L-butyric acid] as the compound, how does the “BIOLOG GEN III” value [3] read?
A: Its value is “+”.

Q: What about the “BIOLOG GEN III” value [4] of the same compound?
A: Its value is “+”.

Q: Which results are given for Tween 40?
A: BIOLOG GEN III (growth experiments) Results [3]: +; BIOLOG GEN III (growth experiments) Results [4]: +

Q: For `OC[C@H]1O[C@H](OC[C@H]2O[C@H](OC[C@H]3O[C@H](O[C@]4(CO)O[C@H](CO)[C@@H](O)[C@@H]4O)[C@H](O)[C@@H](O)[C@@H]3O)[C@H](O)[C@@H](O)[C@H]2O)[C@H](O)[C@@H](O)[C@H]1O` [Stachyose], which “BIOLOG GEN III” value [3] is on record?
A: The value was “-”.

Q: What about the “BIOLOG GEN III” value [4] of the same compound?
A: Its value is “-”.

Q: Which “BIOLOG GEN III” value [3] does the source give for `O=C(O)C[C@H](O)C(=O)O` [L-malic acid] here?
A: The value was “+”.

Q: And the “BIOLOG GEN III” value [4]?
A: The value was “+”.

Q: Which results are given for `COC(=O)[C@@H](C)O` [D-methyl lactate]?
A: BIOLOG GEN III (growth experiments) Results [3]: -; BIOLOG GEN III (growth experiments) Results [4]: -

Q: With `OC[C@H]1O[C@H](O[C@H]2O[C@H](CO)[C@@H](O)[C@H](O)[C@H]2O)[C@H](O)[C@@H](O)[C@@H]1O` [D-trehalose] as the compound, how does the “BIOLOG GEN III” value [3] read?
A: Its value is “+”.

Q: What about the “BIOLOG GEN III” value [4] of the same compound?
A: The value was “+”.

Q: With `CO[C@H]1/C=C/O[C@@]2(C)Oc3c(C)c([O-])c4c(O)c(cc(O)c4c3C2=O)NC(=O)/C(C)=C\C=C\[C@H](C)[C@H](O)[C@@H](C)[C@@H](O)[C@@H](C)[C@H](OC(C)=O)[C@@H]1C.[Na+]` [Rifamycin SV] as the compound, how does the “BIOLOG GEN II (chemically sensitive experiments) Results” value [1] read?
A: The value was “+”.

Q: And the “BIOLOG GEN II (chemically sensitive experiments) Results” value [2]?
A: Its value is “+”.

Q: For `CCC(O)C(=O)O` (centres unmarked) [A-hydroxybutyr atic acid], which “BIOLOG GEN III” value [3] is on record?
A: Its value is “-”.

Q: What about the “BIOLOG GEN III” value [4] of the same compound?
A: The value was “-”.

Q: For D-salicin, which “BIOLOG GEN III” value [3] is on record?
A: The value was “-”.

Q: And the “BIOLOG GEN III” value [4]?
A: The value was “-”.

Q: Which results are given for `CO[C@@H]1O[C@H](CO)[C@@H](O)[C@H](O)[C@H]1O` [β-methyl-D-glucoside]?
A: BIOLOG GEN III (growth experiments) Results [3]: -; BIOLOG GEN III (growth experiments) Results [4]: -

Q: How did the Susceptibility degree [5] turn out when Penicillin was run?
A: The Susceptibility degree was “R”.

Q: What about the Susceptibility degree [6] of the same compound?
A: The Susceptibility degree was “R”.

Q: Which results are given for `O=[Te]([O-])[O-].[K+].[K+]` [Potassium tellurite]?
A: BIOLOG GEN II (chemically sensitive experiments) Results [1]: +; BIOLOG GEN II (chemically sensitive experiments) Results [2]: +

Q: How did the “BIOLOG GEN III” value [3] turn out when `OC[C@H]1O[C@H](O[C@H]2[C@H](O)[C@@H](O)[C@H](O)O[C@@H]2CO)[C@H](O)[C@@H](O)[C@@H]1O` [D-maltose] was run?
A: The value was “-”.

Q: And the “BIOLOG GEN III” value [4]?
A: The value was “-”.

Q: Which “BIOLOG GEN III” value [3] does the source give for `O=C(O)CCC(=O)C(=O)O` [α-ketoglutarate] here?
A: Its value is “+”.

Q: What about the “BIOLOG GEN III” value [4] of the same compound?
A: Its value is “+”.

Q: For `CC(O)C(=O)[O-].[Na+]` (centres unmarked) [1 % Sodium lactate, Sodium lactate], which “BIOLOG GEN II (chemically sensitive experiments) Results” value [1] is on record?
A: The value was “+”.

Q: And the “BIOLOG GEN II (chemically sensitive experiments) Results” value [2]?
A: Its value is “+”.

Q: `C[C@H](O)C(=O)O` [L-lactic acid] was tested. Which “BIOLOG GEN III” value [3] did it give?
A: Its value is “-”.

Q: What about the “BIOLOG GEN III” value [4] of the same compound?
A: The value was “-”.

Q: With `[Cl-].[Na+]` [1%NaCl, NaCl] as the compound, how does the “BIOLOG GEN II (chemically sensitive experiments) Results” value [1] read?
A: The value was “+”.

Q: And the “BIOLOG GEN II (chemically sensitive experiments) Results” value [2]?
A: The value was “+”.

Q: What does the source list for `OC[C@@H](O)C(O)[C@H](O)CO` [D-arabitol]?
A: BIOLOG GEN III (growth experiments) Results [3]: -; BIOLOG GEN III (growth experiments) Results [4]: -

Q: What does the source list for `O=C1CN(/N=C/c2ccc([N+](=O)[O-])o2)C(=O)N1` [Furantoin]?
A: Susceptibility degree [5]: R; Susceptibility degree [6]: R

Q: What does the source list for Cotrimoxazole?
A: Susceptibility degree [5]: S; Susceptibility degree [6]: S
